According to patent US20120115877A1, “Facially Amphiphilic Compounds, Compositions, And Uses Thereof In Treating Cancer” (POLYMEDIX, INC., priority 2010, published 2012):
≈ marks a conversion by molar mass, not a printed value.

What was measured:
[1] = system: E. coli D31
[2] = system: human red blood cells; assay: Lysis of human red blood cells (HC50); type: cell-based
[3] = system: MCF-10A (ATCC CRL-10317); assay: XTT cell viability assay, growth inhibition; type: cell-based; settings: Homo sapiens, MCF10A, non-tumorigenic, 48 hours incubation
Procedure: (§1) Compound A was tested against two human breast cancer cell lines, MCF-7 (ATCC HTB-22) and TMX2-28, and one non-tumorigenic breast cell line, MCF-10A (ATCC CRL-10317). MCF-7 and TMX2-28 cells were grown in DC5 cell growth media while the MCF-10A cells were grown in MEGM, both supplemented with 5% bovine growth serum. The cells were grown using standard techniques. Cell cultures at 50% confluence were harvested with trypsin, seeded onto sterile 96 well plates at a density of 10,000 cells/well and allowed to grow overnight to 50% confluence. Compound A was then added to the growth medium and allowed to further incubate for 48 hours. Viable cells were quantitated using an XTT assay (purchased from Roche).

[4] = system: 786-0; assay: NCI-60 screen, Renal Cancer; type: cell-based, human; settings: 10 μM
Procedure: (§2) Several compounds were tested at single concentrations (10 μM) against 59 different human tumor cell lines, representing leukemia, melanoma and cancers of the lung, colon, brain, ovary, breast, prostate, and kidney (see, Table 3). The human tumor cell lines of the cancer screening panel were grown in RPMI 1640 medium containing 5% fetal bovine serum and 2 mM L-glutamine. For a typical screening experiment, cells were inoculated into 96 well microtiter plates in 100 μL at plating densities ranging from 5,000 to 40,000 cells/well depending on the doubling time of individual cell lines. After cell inoculation, the microtiter plates were incubated at 37° C., 5% CO2, 95% air and 100% relative humidity for 24 hours prior to addition of the compounds.
(§3) After 24 hours, two plates of each cell line were fixed in situ with TCA, to represent a measurement of the cell population for each cell line at the time of drug addition (Tz). Compounds were solubilized in dimethyl sulfoxide at 400-fold the desired final maximum test concentration and stored frozen prior to use. At the time of drug addition, an aliquot of frozen concentrate was thawed and diluted to twice the desired final maximum test concentration with complete medium containing 50 μg/ml gentamicin. Additional four, 10-fold or ½ log serial dilutions were made to provide a total of five compound concentrations plus control. Aliquots of 100 μl of these different drug dilutions were added to the appropriate microtiter wells already containing 100 μl of medium, resulting in the required final compound concentrations.
(§4) Following drug addition, the plates were incubated for an additional 48 hours at 37° C., 5% CO2, 95% air, and 100% relative humidity. For adherent cells, the assay was terminated by the addition of cold TCA. Cells were fixed in situ by the gentle addition of 50 μl of cold 50% (w/v) TCA (final concentration, 10% TCA) and incubated for 60 minutes at 4° C. The supernatant was discarded, and the plates were washed five times with tap water and air dried. Sulforhodamine B (SRB) solution (100 μl) at 0.4% (w/v) in 1% acetic acid was added to each well, and plates were incubated for 10 minutes at room temperature. After staining, unbound dye was removed by washing five times with 1% acetic acid and the plates were air dried. Bound stain was subsequently solubilized with 10 mM trizma base, and the absorbance was read on an automated plate reader at a wavelength of 515 nm. For suspension cells, the methodology was the same except that the assay was terminated by fixing settled cells at the bottom of the wells by gently adding 50 μl of 80% TCA (final concentration, 16% TCA). Using the seven absorbance measurements (time zero, (Tz), control growth, (C), and test growth in the presence of drug at the five concentration levels (Ti)), the percentage growth was calculated at each of the compound concentrations levels. Percentage growth inhibition was calculated as:
(§5) [(Ti−Tz)/(C−Tz)]×100 for concentrations for which Ti>/=Tz
(§6) [(Ti−Tz)/Tz]×100 for concentrations for which Ti<Tz.
(§7) Three dose response parameters were calculated for each compound. Growth inhibition of 50% (GI50) was calculated from [(Ti−Tz)/(C−Tz)]×100=50, which is the compound concentration resulting in a 50% reduction in the net protein increase (as measured by SRB staining) in control cells during the compound incubation. The compound concentration resulting in total growth inhibition (TGI) was calculated from Ti=Tz. The LC50 (concentration of compound resulting in a 50% reduction in the measured protein at the end of the compound treatment as compared to that at the beginning) indicating a net loss of cells following treatment was calculated from [(Ti−Tz)/Tz]×100=−50. Values were calculated for each of these three parameters if the level of activity was reached; however, if the effect was not reached or was exceeded, the value for that parameter was expressed as greater or less than the maximum or minimum concentration tested.

[5] = system: RPMI-8226; assay: NCI-60 screen, Leukemia; type: cell-based, human; settings: 10 μM
Procedure: as §2, §3, §4, §5, §6, §7

[6] = system: MCF-7 (ATCC HTB-22); assay: XTT cell viability assay, growth inhibition; type: cell-based, human
Procedure: as §1

[7] = system: TMX2-28; assay: XTT cell viability assay, growth inhibition; type: cell-based, human
Procedure: as §1

[8] = system: T-47D; assay: NCI-60 screen, Breast Cancer; type: cell-based, human; settings: 10 μM
Procedure: as §2, §3, §4, §5, §6, §7

[9] = system: BT-549; assay: NCI-60 screen, Breast Cancer; type: cell-based, human; settings: 10 μM
Procedure: as §2, §3, §4, §5, §6, §7

[10] = system: MDA-MB-468; assay: NCI-60 screen, Breast Cancer; type: cell-based, human; settings: 10 μM
Procedure: as §2, §3, §4, §5, §6, §7

[11] = system: S. typhymurium ATTC 29631
[12] = system: 59 different human tumor cell lines; assay: NCI-60 DTP human tumor cell line screen, single concentration, mean over panel; type: cell-based; settings: single concentration 10 μM, mean over 59 human tumor cell lines; for inhibition at 10 µM: Homo sapiens, read-out: mean growth inhibition; for NCI Screen Mean % Growth: 48 hours, SRB
Procedure: as §2, §3, §4, §5, §6

[13] = system: HS 578T; assay: NCI-60 screen, Breast Cancer; type: cell-based, human; settings: 10 μM
Procedure: as §2, §3, §4, §5, §6, §7

NCCc1cc(Br)cc(C#Cc2cccc(C#Cc3cc(Br)cc(CCN)c3)c2)c1 [Compound A]
potent cytotoxicity against bacteria (concentration) [1]: 0.8 to 1.6 µg/mL
50% lysis (HC50) [2]: 75 µg/mL
IC90 [3]: 12.5 µg/mL (≈ 23.9 µM)
Percent Growth [4]: −26.78%
Percent Growth [5]: 9.497%
IC90 ([6]; Homo sapiens, MCF7, MCF-7, tumorigenic, 48 hours incubation, XTT): 6.3 µg/mL (≈ 12.1 µM)
Selectivity IC90/IC90 MCF10A ([6]; MCF-7 versus MCF10A): 2
IC90 ([7]; Homo sapiens, TMX2-28, tumorigenic, 48 hours incubation, XTT): 6.3 µg/mL (≈ 12.1 µM)
Selectivity IC90/IC90 MCF10A ([7]; TMX2-28 versus MCF10A): 2
Percent Growth [8]: 31.82%
Percent Growth [9]: 102%
Percent Growth [10]: −61.5%
potent cytotoxicity against bacteria (concentration) [11]: 0.8 to 1.6 µg/mL

N=C(N)NCCCCC(=O)Nc1cc(C(F)(F)F)cc(NC(=O)Nc2ccc(NC(=O)Nc3cc(C(F)(F)F)cc(NC(=O)CCCCNC(=N)N)c3OC3CCNC3)cc2)c1OC1CCNC1 (stereo not shown) [Compound B]
inhibition at 10 µM [12]: > 30%
NCI Screen Mean % Growth [12]: 56.58%
Percent Growth [4]: 58.61%
Percent Growth [5]: 49.97%
Percent Growth [8]: 3.786%
Percent Growth [9]: 89.61%
Percent Growth [10]: 43.02%

N=C(N)NCCCCC(=O)Nc1cc(C(F)(F)F)cc(NC(=O)c2cc(C(=O)Nc3cc(C(F)(F)F)cc(NC(=O)CCCCNC(=N)N)c3SCCN)ncn2)c1SCCN [Compound C]
inhibition at 10 µM [12]: > 30%
NCI Screen Mean % Growth [12]: 43.48%
Percent Growth [8]: 14.59%
Percent Growth [9]: 96.67%
Percent Growth [10]: −53.05%

NCCCc1cccc(-c2ccc3sc4ccc(-c5cccc(CCCN)c5)cc4c3c2)c1 [Compound D]
inhibition at 10 µM [12]: > 30%
NCI Screen Mean % Growth [12]: 67.91%
Percent Growth [4]: 79.48%
Percent Growth [5]: 62.06%
Percent Growth [8]: 90.75%
Percent Growth [9]: 105.8%
Percent Growth [10]: 17.63%

c1cc(-c2ccc3sc4ccc(-c5ccnc(N6CCNCC6)c5)cc4c3c2)cc(N2CCNCC2)n1 [Compound E]
Percent Growth [8]: −12.27%
Percent Growth [9]: 98.88%
Percent Growth [10]: −82.28%

NCCSc1cc(SCCN)c(C(F)(F)F)cc1NC(=O)c1cc(C(=O)Nc2cc(C(F)(F)F)c(SCCN)cc2SCCN)ncn1 [Compound F]
inhibition at 10 µM [12]: > 30%
NCI Screen Mean % Growth [12]: 41.28%
Percent Growth [4]: 50.09%
Percent Growth [8]: 34.11%
Percent Growth [9]: 101.8%
Percent Growth [10]: −78.28%

NCCCc1cccc(-c2ccc3oc4ccc(-c5cccc(CCCN)c5)cc4c3c2)c1 [Compound G]
inhibition at 10 µM [12]: > 30%
NCI Screen Mean % Growth [12]: 49.56%
Percent Growth [4]: 5.487%
Percent Growth [5]: 65.28%
Percent Growth [8]: 80.44%
Percent Growth [9]: 101.5%
Percent Growth [13]: 100.4%
Percent Growth [10]: −3.51%
